According to PMC5887109, “Unravelling the Molecular Determinants of Bee Sensitivity to Neonicotinoid Insecticides” (Current Biology, 2018):

Tests used:
[1] = target: nicotinic acetylcholine receptor (nAChR); experiment: [3H]imidacloprid displacement, honeybee head membrane preparations; assay type: binding, A. mellifera; settings: honeybee head membranes; 95% CI given in text
Description: [^3H]imidacloprid (specific activity 1.406 GBq μmol^−1) displacement studies were conducted using membrane preparations isolated from frozen (−80°C) honeybee and bumble bee heads, respectively, following previously published protocols. Briefly, bee heads weighing 10cg were homogenized in 200cml ice-cold 0.1cM potassium phosphate buffer, pH 7.4 containing 95cmM sucrose using a motor-driven Ultra Turrax blender. […] Assays were performed in a 96-well microtiter plate with bonded GF/C filter membrane (Packard UniFilter-96, GF/C) and consisted of 200 μL of homogenate (0.48cmg protein), 25 μL of [^3H]imidacloprid (576cpM) and 25 μL of competing ligand. Ligand concentrations used ranged from 0.001 to 10c000cnM and were tested at least in duplicate per competition assay. The assay was started by the addition of homogenate and incubated for 60cmin at room temperature. Bound [^3H]imidacloprid was quantified by filtration into a second 96-well filter plate (conditioned with ice-cold 100cmM potassium phosphate buffer, pH 7.4 (including BSA 5cg liter−1)) using a commercial cell harvester (Brandel). […] Each well was then loaded with 25 μL of scintillation cocktail (Microszint-O-Filtercount, Packard) and the plate counted in a Topcount scintillation counter (Packard). Non-specific binding was determined using a final concentration of 10cμM unlabelled imidacloprid. […]

CYP9Q1 = CYP9Q1 (Apis mellifera, UniProt A0A7M7GTV9); experiment: in vitro; settings: for metabolism by the recombinant P450 (in words): hydroxylation (thiacloprid, imidacloprid) or N-desmethylation (acetamiprid)
Chain of CYP9Q1 (Q07994 whole entry): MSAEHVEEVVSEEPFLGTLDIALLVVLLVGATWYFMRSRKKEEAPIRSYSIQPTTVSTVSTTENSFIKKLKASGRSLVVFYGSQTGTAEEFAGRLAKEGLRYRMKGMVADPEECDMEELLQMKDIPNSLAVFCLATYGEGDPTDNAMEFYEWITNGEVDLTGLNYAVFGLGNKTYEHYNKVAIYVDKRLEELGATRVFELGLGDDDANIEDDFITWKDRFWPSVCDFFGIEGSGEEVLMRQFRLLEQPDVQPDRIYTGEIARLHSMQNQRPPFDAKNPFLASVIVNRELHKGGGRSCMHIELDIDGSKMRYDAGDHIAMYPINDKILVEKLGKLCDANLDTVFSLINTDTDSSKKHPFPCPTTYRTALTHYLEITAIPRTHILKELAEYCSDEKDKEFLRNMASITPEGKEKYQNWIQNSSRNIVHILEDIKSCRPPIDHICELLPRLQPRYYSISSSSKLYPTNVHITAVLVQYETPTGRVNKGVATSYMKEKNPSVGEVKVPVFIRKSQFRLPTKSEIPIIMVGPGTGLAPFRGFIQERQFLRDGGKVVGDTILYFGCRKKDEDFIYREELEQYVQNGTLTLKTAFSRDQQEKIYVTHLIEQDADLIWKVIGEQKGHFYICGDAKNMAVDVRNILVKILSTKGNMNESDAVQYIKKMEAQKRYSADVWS
Chain of CYP9Q1 (A0A7M7GTV9 entry or part of it): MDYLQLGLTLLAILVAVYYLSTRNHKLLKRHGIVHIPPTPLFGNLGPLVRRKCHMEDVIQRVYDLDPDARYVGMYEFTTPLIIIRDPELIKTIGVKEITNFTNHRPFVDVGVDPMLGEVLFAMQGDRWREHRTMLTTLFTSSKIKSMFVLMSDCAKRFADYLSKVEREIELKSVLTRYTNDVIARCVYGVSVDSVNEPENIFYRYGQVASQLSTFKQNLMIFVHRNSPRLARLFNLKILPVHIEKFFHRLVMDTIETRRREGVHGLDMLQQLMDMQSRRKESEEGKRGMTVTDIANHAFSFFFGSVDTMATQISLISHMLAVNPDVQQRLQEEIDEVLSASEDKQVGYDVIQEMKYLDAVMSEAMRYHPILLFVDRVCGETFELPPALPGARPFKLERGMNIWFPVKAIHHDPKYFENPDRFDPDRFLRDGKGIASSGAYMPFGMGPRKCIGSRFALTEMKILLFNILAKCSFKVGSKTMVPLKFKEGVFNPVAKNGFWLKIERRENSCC
From the text: (§1) All bee P450 (see Table S3 for accession numbers) and house fly NADPH-dependent cytochrome P450 reductase (CPR) (GenBank accession number Q07994) genes were obtained by gene synthesis (Geneart, CA, USA) and inserted into the pDEST8 expression vector (Invitrogen). Codon optimization of all bee genes was used to optimize expression in lepidopteran cell lines. The PFastbac1 vector with no inserted DNA was used to produce a control virus. The recombinant baculovirus DNA was constructed and transfected into Trichoplusia ni (High five cells, Thermo Fisher) using the Bac-to-Bac baculovirus expression system (Invitrogen) according to the manufacturer’s instructions. The titer of the recombinant virus was determined following protocols of the supplier. High Five cells grown to a density of 2 × 10^6 cells ml^-1 were co-infected with recombinant baculoviruses containing each bee P450 and CPR with a range of MOI (multiplicity of infection) ratios to identify the optimal conditions. Control cells were co-infected with the baculovirus containing vector with no insert (ctrl-virus) and the recombinant baculovirus expressing CPR using the same MOI ratios. Ferric citrate and δ-aminolevulinic acid hydrochloride were added to a final concentration of 0.1 mM at the time of infection and 24 h after infection to compensate the low levels of endogenous heme in the insect cells. After 48 h, cells were harvested, washed with PBS, and microsomes of the membrane fraction prepared according to standard procedures and stored at −80°C [31]. Briefly, pellets were homogenized for 30 s in 0.1M Na/K-phosphate buffer, pH 7.4 containing 1mM EDTA and DTT and 200mM sucrose using a Fastprep (MP Biomedicals), filtered through miracloth and centrifuging for 10 min at 680 g at 4°C. The supernatant was then centrifuged for 1 h at 100,000 g at 4°C, with the pellet subsequently resuspended in 0.1M Na/K-phosphate buffer, pH 7.6 containing 1mM EDTA and DTT and 10% glycerol using a Dounce tissue grinder. P450 expression and functionality was estimated by measuring CO-difference spectra in reduced samples using a Specord 200 Plus Spectrophotometer (Analytik Jena) and scanning from 500 nm to 400 nm. The protein content of samples was determined using Bradford reagent (Sigma) and bovine serum albumin (BSA) as a reference.
(§2) The total assay volume was 200 μL using three replicates for each data point. Microsomes incubated without NADPH served as a control. The assay was stopped by the addition of ice-cold acetonitrile (to 80% final concentration), centrifuged for 10 min at 3000 g and the supernatant subsequently analyzed by tandem mass spectrometry as described previously. For the chromatography on a Waters Acquity HSS T3 column (2.1x50mm, 1.8μm), acetonitrile/water/0.1% formic acid was used as the eluent in gradient mode. […] The peak integrals were calibrated externally against a standard calibration curve. […] Substrate turnover from two independent reactions were plotted versus controls and Michaelis-Menten kinetics determined using GraphPad Prism version 7 (GraphPad Software, CA, USA).

CYP9Q3 = CYP9Q3 (Apis mellifera, UniProt A0A7M7LMV1); experiment: in vitro; settings: for metabolism by the recombinant P450 (in words): hydroxylation (thiacloprid, imidacloprid) or N-desmethylation (acetamiprid)
Chain of CYP9Q3 (A0A7M7LMV1 entry or part of it): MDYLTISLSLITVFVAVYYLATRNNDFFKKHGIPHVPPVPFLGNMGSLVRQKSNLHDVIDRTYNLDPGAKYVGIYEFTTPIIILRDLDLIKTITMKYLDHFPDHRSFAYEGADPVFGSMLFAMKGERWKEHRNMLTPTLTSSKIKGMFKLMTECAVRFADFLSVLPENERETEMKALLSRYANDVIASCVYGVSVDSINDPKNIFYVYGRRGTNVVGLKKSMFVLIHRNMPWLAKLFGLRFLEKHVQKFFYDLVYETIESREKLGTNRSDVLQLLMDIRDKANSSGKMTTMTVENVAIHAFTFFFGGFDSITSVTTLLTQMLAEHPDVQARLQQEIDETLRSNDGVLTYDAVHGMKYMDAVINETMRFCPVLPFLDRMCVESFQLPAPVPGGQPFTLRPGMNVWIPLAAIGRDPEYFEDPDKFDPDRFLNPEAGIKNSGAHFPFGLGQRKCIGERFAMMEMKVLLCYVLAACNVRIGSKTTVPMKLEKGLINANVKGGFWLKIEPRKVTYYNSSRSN
Chain of CYP9Q3 (Q07994 whole entry, further chain): as the sequence (Q07994 whole entry) above
From the text: as §1, §2

[2] = apparent value, mean ± SD (n=3), decimal commas

Row | SMILES | IC50 [1] | metabolism by the recombinant P450 (in words) (CYP9Q1) | metabolism by the recombinant P450 (in words) (CYP9Q3) | Km at 2 h (CYP9Q1; Apis mellifera) | Vmax, thiacloprid hydroxylation (CYP9Q1; [2]) | Km at 2 h (CYP9Q3; Apis mellifera) | Vmax, thiacloprid hydroxylation (CYP9Q3; [2])
1 | O=[N+]([O-])NC1=NCCN1Cc1ccc(Cl)nc1 [imidacloprid] | 1.2 nM | much lower efficiency than exhibited for thiacloprid | much lower efficiency than exhibited for thiacloprid |  |  |  | 
2 | N#C/N=C1\SCCN1Cc1ccc(Cl)nc1 [thiacloprid] | 1.1 nM | weak activity | highly efficient metabolizer | 17.8 µM | 3,92 ±0,08 pmol min-1 mg-1 | 3.92 µM | 607,8±5,48 pmol min-1 mg-1
